The experiment concerns the target T1, Olfactory receptor (Rattus norvegicus, UniProt D3Z9H0).
T1 sequence (D3Z9H0 whole entry): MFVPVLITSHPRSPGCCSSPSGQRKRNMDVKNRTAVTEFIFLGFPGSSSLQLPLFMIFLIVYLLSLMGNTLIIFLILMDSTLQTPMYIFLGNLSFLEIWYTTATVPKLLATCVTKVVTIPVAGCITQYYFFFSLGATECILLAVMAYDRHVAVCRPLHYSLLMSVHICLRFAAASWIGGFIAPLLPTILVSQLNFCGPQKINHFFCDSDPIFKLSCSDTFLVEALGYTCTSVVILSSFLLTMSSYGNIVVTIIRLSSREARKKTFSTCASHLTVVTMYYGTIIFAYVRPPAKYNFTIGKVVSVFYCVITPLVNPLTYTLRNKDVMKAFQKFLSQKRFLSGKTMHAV
The experiment is described as follows: Inhibition Assay. From the text: Inhibition assay of olfactory receptors 17 activation.

The structures appear in SMILES notation.

Here are results for five compounds from BindingDB's records for doi:10.1016/j.chembiol.2008.10.014 (Columbia University, 2008).

One may read the IC50 as the concentration that inhibits the measured activity by half. Higher therefore signals lower potency.

The compound `O=CCCC1CCCC1` [Aldehydes, 4] showed an IC50 of 60 µM. The figure for `O=CCC1CCCCC1` [Aldehydes, 5] is 37 µM; for `O=CC1CCCCCC1` [Aldehydes, 6] it is 57 µM. As to `CCCCC=O` [Aldehydes, C5], half-maximal inhibition (IC50) was put at 460 µM. In the case of `CCCCCC=O` [Aldehydes, C6], the concentration for half-maximal inhibition (IC50) worked out at 133 µM.
